According to PubChem BioAssay AID602191 (Broad Institute, 2012):
The source made the active and inactive calls.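 How the source made its calls: active means fitted curve reaches 40% activation at a concentration no higher than the top valid tested dose; inconclusive means flat fit between 30% and 70% activation, or poor fit; inactive means uptake decrease, flat fit within 30% of zero, the rest.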 Residues, ends and D or L forms follow the SMILES beside them.

target: Scavenger receptor class B member 1 (Mus musculus) (UniProt Q61009); test: enhancers of DiI-HDL lipid transfer via SR-BI – cell-based, ldlA[mSR-BI] CHO, DiI fluorescence, cherry-pick, dose response (AID 602191); settings: ldlA[mSR-BI] CHO cells, 3 h, at 11 µM (top of the series);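 further: cell fluorescence from internalized DiI-labeled HDL after washing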;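 on AC40: potency of activators raising HDL uptake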;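 on activation (HDL uptake increase): 0% = median of DMSO wells and 100% = twice the DMSO signal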
Sequence (Q61009 whole entry, looked up): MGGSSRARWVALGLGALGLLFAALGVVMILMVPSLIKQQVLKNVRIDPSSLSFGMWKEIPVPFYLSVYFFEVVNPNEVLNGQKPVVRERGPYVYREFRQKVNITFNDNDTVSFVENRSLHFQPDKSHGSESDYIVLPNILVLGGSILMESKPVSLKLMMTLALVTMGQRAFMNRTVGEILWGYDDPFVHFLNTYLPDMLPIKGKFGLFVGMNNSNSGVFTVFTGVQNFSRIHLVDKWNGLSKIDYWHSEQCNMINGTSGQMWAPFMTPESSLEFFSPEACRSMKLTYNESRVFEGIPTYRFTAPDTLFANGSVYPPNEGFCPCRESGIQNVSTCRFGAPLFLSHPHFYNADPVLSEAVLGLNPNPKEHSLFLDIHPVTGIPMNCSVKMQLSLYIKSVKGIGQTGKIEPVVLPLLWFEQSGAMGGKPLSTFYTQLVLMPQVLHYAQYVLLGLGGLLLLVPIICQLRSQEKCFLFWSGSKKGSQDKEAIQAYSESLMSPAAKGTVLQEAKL

| activation (HDL uptake increase) | SMILES |
| --- | --- |
| -10.2% (inactive) | CC(C)C[C@@H](CN1CCCC1CN1C(=S)NC[C@@H]1Cc1ccc(O)cc1)N1C[C@H](Cc2ccc(O)cc2)N(CC2CCCCC2)C1=S (stereo partly drawn) |

same assay, conditions: ldlA[mSR-BI] CHO cells, 3 h, at 35 µM (top of the series)

| SMILES | activation (HDL uptake increase) |
| --- | --- |
| CC(=O)NC1(C2CCCCC2=O)CCCCC1 (stereo not drawn) | -3.84% (inactive) |
| Cc1ccc(-n2ncc3c(=O)n(CC(=O)N4CCN(c5ccccc5F)CC4)cnc32)cc1C | -20.1% (inactive) |
| CCc1nnc(NC(=O)c2nc(S(=O)(=O)Cc3ccc(C)cc3)ncc2Cl)s1 | -22.7% (inactive) |
| CCN1CCN(c2ccc(S(=O)(=O)N3CCCCC3)cc2NC(=O)c2cccc(C(F)(F)F)c2)CC1 | 7.47% (inactive) |
| COc1ccccc1NC(=O)CCN1CCCCCC1 | -12.4% (inactive) |
| CCCCn1c(=N)n(CCOc2ccc(C)cc2)c2ccccc21 | -6.96% (inactive) |
| COCCNC(=O)c1cnn2c1NC(c1ccco1)CC2C(F)(F)F (stereo not drawn) | -4% (inactive) |
| C[C@H](CO)N1C[C@H](C)[C@H](CN(C)C)Oc2ccc(NS(=O)(=O)c3ccc(F)cc3)cc2CC1=O | -7.7% (inactive) |
| Cc1nc(CCNC(=O)Cc2ccc(Cl)cc2)cs1 | -4.62% (inactive) |
| O=C(NC1CCCCCC1)C1c2ccccc2C(=O)N1CCCN1CCOCC1 (stereo not drawn) | -1.53% (inactive) |
| O=C1CCC(=O)N1c1ccc(S(=O)(=O)Nc2cccc(Br)c2)cc1 | -7.52% (inactive) |
| Cc1ccc(NC(=O)c2nc[nH]c2C(=O)NCCN(CCNC(=O)c2[nH]cnc2C(=O)Nc2ccc(C)cc2)CCNC(=O)c2[nH]cnc2C(=O)Nc2ccc(C)cc2)cc1 | 8.14% (inactive) |
| CC1CC(C)CN(C(=O)CN2CCN(Cc3ccc(Cl)cc3)C2=O)C1 (stereo not drawn) | -4.58% (inactive) |
| CC(=O)N1CCN(S(=O)(=O)c2cccc(C(=O)Nc3cc(C(F)(F)F)ccc3N3CCOCC3)c2)CC1 | -3.42% (inactive) |
| CC(C)(C)n1nc2c(c1NC(=O)Cc1ccc(F)cc1)CS(=O)(=O)C2 | 9.82% (inactive) |
| Cc1cccc(CCNS(=O)(=O)c2ccc3c(c2)NC(=O)CO3)c1 | 11.6% (inactive) |
| COc1ccc(N2CC(NS(=O)(=O)c3cccnc3)CC2=O)cc1 (stereo not drawn) | -6.57% (inactive) |
| COc1ccc(N2C(=O)CCC(C(=O)N3CCOCC3)C2c2ccc(F)cc2)cc1 (stereo not drawn) | 5.04% (inactive) |
| O=C(Cc1ccsc1)N1CCN(S(=O)(=O)c2cccc(F)c2)CC1 | -4.56% (inactive) |
| CC[C@H](C)[C@@H]1NC(=O)[C@H]([C@@H](C)CC)NC(=O)[C@@H](CC(C)C)NC(=O)[C@H](Cc2ccccc2)NC(=O)[C@H](Cc2ccccc2)NC(=O)[C@@H]2CCCN2C(=O)[C@@H]2CCCN2C(=O)[C@H](C(C)C)NC(=O)[C@H](CC(C)C)NC1=O (HELM PEPTIDE1{F.F.[dL].I.I.L.V.P.P}$PEPTIDE1,PEPTIDE1,1:R1-9:R2$$$V2.0) | 5.97% (inactive) |
| O=c1[nH]c(C2CCN(S(=O)(=O)c3ccc4c(c3)OCCO4)CC2)nc2c1nnn2Cc1ccc(F)cc1 | -4.95% (inactive) |

| SMILES | activation (HDL uptake increase) |
| --- | --- |
| Cc1c(C(=O)NCCN2CCOC2=O)oc2c(F)cccc12 | -0.811% (inactive) |
| Cc1ccc(-c2csc(=Nc3cccnc3)n2CCCN2CCCC2=O)cc1C | -13.4% (inactive) |
| CCCCn1c(CN2CCN(C(=O)c3ccco3)CC2)nc2c1c(=O)n(C)c(=O)n2C | 2.07% (inactive) |
| CC(=O)N1CCN(C(=O)c2ccc(-n3c(C)ccc3C)cc2)CC1 | -10.8% (inactive) |
| O=C(COC(=O)C1CCCCC1)Nc1cccc(Br)c1 | -5.26% (inactive) |
| CN(C(=O)COC(=O)c1cccc(S(=O)(=O)N2CCOCC2)c1)C1CCS(=O)(=O)C1 (stereo not drawn) | 5.01% (inactive) |
| Cc1cc(OCC(=O)OCC(=O)NC2CCCCC2C)ccc1Cl (stereo not drawn) | -2.13% (inactive) |
| CC(Sc1ccc(S(=O)(=O)N(C)C)cn1)C(=O)NC1CCCC1 (stereo not drawn) | -1.21% (inactive) |
| CC(C)CC(=O)c1c(O)c(C=O)c(O)c2c1O[C@@]1(C)[C@@H](C2)C[C@H]2C[C@@H]1C2(C)C | -25.2% (inactive) |
| COC(=O)[C@@]12CCCCN1[C@H](c1ccc(-c3ccc(C(C)=O)cc3)c(OC)c1)[C@@H]1C(=O)N(C)C(=O)[C@@H]12 | -14% (inactive) |
| CC[C@]12c3[nH]c4cc(-c5ccco5)ccc4c3CCN1C(=O)[C@@H](CC(=O)NC(C)(C)C)C[C@@H]2C(=O)N1CCN(C(=O)c2ccco2)CC1 | -20.6% (inactive) |
| Cn1nnnc1SCCNC(=O)C1CCC(=O)N(Cc2ccccc2F)C1 (stereo not drawn) | -10.7% (inactive) |
| COc1ccc2c(c1OC)C(=O)OC2CC(=O)O (stereo not drawn) | 3.81% (inactive) |
| COc1ccc(C(=O)C2CCCN(C(=O)/C=C/c3ccccn3)C2)c(C)c1 (stereo not drawn) | -6.34% (inactive) |
| Clc1ccc2nc(CN3CCCCCC3)cn2c1 | 0.923% (inactive) |
| O=C(N/N=C\c1cccnc1)c1ccc(Br)s1 | -10.3% (inactive) |
| CCCCNC(=O)CCCCC(=O)N/N=C/c1cccc(Cl)c1 | -17.4% (inactive) |
| CCCCN(C(=O)c1cc2c(s1)CCC2)c1c(N)n(CC(C)C)c(=O)[nH]c1=O | -6.82% (inactive) |
| Cc1ccc(C(c2nnnn2C2CCCCC2)N2CCN3CCCC3C2)cc1 (stereo not drawn) | -9.01% (inactive) |
| O=C1NCCCC1C(=O)NCCNC(=O)C(F)(F)F (stereo not drawn) | -6.55% (inactive) |

Further lines, results first:

| activation (HDL uptake increase) | SMILES |
| --- | --- |
| -0.695% (inactive) | Cc1c(C)c2ccc(OCC(=O)NC(Cc3c[nH]c4ccc(O)cc34)C(=O)O)c(C)c2oc1=O (stereo not drawn) |
| -14.4% (inactive) | O=C(NCC(=O)N1CCN(c2ccccc2)CC1)c1ccc(Br)o1 |
| -13.1% (inactive) | COc1ccc2oc(C(=O)OCC(=O)Nc3ccc(C(=O)N(C)C)cc3)c(C)c2c1 |
| -4.87% (inactive) | CCC(C)(C)NC(=O)C(c1cccnc1)N(CCOC)C(=O)Cn1nnc2ccccc21 (stereo not drawn) |
| -12% (inactive) | CC(=O)NC(Cc1ccccc1)C(=O)OCC(=O)c1ccccc1 (stereo not drawn) |
| -8.99% (inactive) | CSCCC(NC(=O)c1ccco1)C(=O)NCc1ccc(F)cc1 (stereo not drawn) |
| 4.09% (inactive) | COC(=O)c1ccc([C@@H](O)[C@H](C)C(=O)CC(=O)OC(C)(C)C)cc1 |
| -4.92% (inactive) | COCCN(CC(=O)Nc1cc(Cl)ccc1-n1cncn1)Cc1nc2ccccc2c(=O)[nH]1 |
| -1.1% (inactive) | COc1cccc(/C=N/n2c(SC)nnc2-c2ccccc2)c1O |
| 8.63% (inactive) | Cc1ccc(C(=O)N/C(=C/c2ccccc2)C(=O)NC(Cc2ccccc2)C(=O)O)cc1 (stereo not drawn) |
| -9.38% (inactive) | Cc1ccc(O)c(NC(=S)NC(=O)c2ccc(-c3ccc(Cl)cc3)o2)c1 |
| -9.53% (inactive) | O=C(O)CCn1cc(/C=C/C(=O)c2ccc(Cl)cc2)c(-c2ccc(Br)cc2)n1 |
| 3.23% (inactive) | COCCNC(=O)C1(C)C=CC2(CCCCC2)N1C(=O)c1ccccc1 (stereo not drawn) |
| -7.36% (inactive) | COc1ccc(C(C(=O)NC2CCCCC2)N(C(=O)CCl)c2ccccc2Cl)cc1 (stereo not drawn) |
| -16.5% (inactive) | COc1ccccc1C(=O)NNC(=S)NC(=O)c1sc2ccccc2c1Cl |
| -2.16% (inactive) | NC(=O)C1CCN(C(=O)C2CC(=O)N(Cc3ccccc3)C2)CC1 (stereo not drawn) |

| activation (HDL uptake increase) | SMILES |
| --- | --- |
| -5.54% (inactive) | CCC(C)[C@@H](C(=O)NCC1CCC(C(=O)O)CC1)n1nnc2ccccc2c1=O (stereo partly drawn) |
| -7.03% (inactive) | C=CC[C@@H](CC(=O)N[C@@H](CO)Cc1ccccc1)C(=O)N[C@@H](COC(=O)[C@@H](CC=C)Cc1ccc(F)cc1)Cc1c[nH]c2ccccc12 |
| -16.3% (inactive) | COc1ccc(NC(=O)C(Sc2nnc3ccccn23)c2ccccc2)cc1Cl (stereo not drawn) |
| -9.27% (inactive) | CCOC(=O)[C@H]1[C@H]2COc3ccccc3[C@@H]2N2C(=O)CN(Cc3ccccc3)C(=O)[C@@]12C |
| 0.656% (inactive) | O=C(Cn1c(C(=O)NCCCN2CCOCC2)cc2sccc21)c1ccccc1 |
| -14.9% (inactive) | O=C(c1ccc(NS(=O)(=O)c2cccc([N+](=O)[O-])c2)cc1)N1CCN(C(=O)c2ccco2)CC1 |
| 7.62% (inactive) | O=C1CN(C(=O)COC(=O)C2=COCCO2)c2ccccc2N1 |
| 2.72% (inactive) | O=C(COC(=O)COc1ccccc1)NCCC1=CCCCC1 |
| 0.551% (inactive) | Cc1ccc(SCC(=O)NNC(=O)CCS(=O)(=O)c2ccc(C)cc2)cc1 |
| 6.93% (inactive) | O=C(O)C1CCN(Cc2cnn(-c3ccccc3)c2-n2cccc2)CC1 |
| -2.01% (inactive) | O=C(CCN1C(=O)[C@@H]2Cc3ccccc3CN2C1=O)N[C@@H](C(=O)O)c1ccccc1 |
| -1.69% (inactive) | CC(=O)Nc1ccc(OC(=O)c2ccco2)cc1 |
| -0.821% (inactive) | COc1ccc(N(CC(=O)NCCSc2ccccn2)S(=O)(=O)c2ccc(C)cc2)cc1OC |
| 4.41% (inactive) | O=C(COC(=O)C1CC1)Nc1ccc(OC(F)F)cc1 |
| -5.82% (inactive) | COc1ccccc1OCC(=O)OCc1cc(-c2ccco2)on1 |
| -10.8% (inactive) | Cc1ccc(NC(=O)COC(=O)Cn2ccc(=O)[nH]c2=O)cc1C |

same assay, conditions: ldlA[mSR-BI] CHO cells, DiI-HDL uptake fluorescence, 3 h

| AC40 | SMILES |
| --- | --- |
| > 35 µM (inactive) | CCN1CCN(c2ccc(S(=O)(=O)N3CCOCC3)cc2NC(=O)C2CCC(C(C)(C)C)CC2)CC1 (stereo not drawn) |
| > 35 µM (inactive) | NCCCC[C@H]1CNC(=O)C(=O)N1CCc1cccc(F)c1 |
| > 35 µM (inactive) | COc1ccc(CC(=O)N(C)Cc2ccc(C(C)(C)C)cc2)cc1S(=O)(=O)N1CCOCC1 |
| > 35 µM (inactive) | O=C(C[C@H]1C[C@H](C(=O)N2CCCCC2)[C@@]2(CCc3ccccc3)c3[nH]c4ccc(Cl)cc4c3CCN2C1=O)NCCc1ccccn1 |
